# Results as given in US20130150384A1, “METHOD FOR TREATMENT OF BRAIN CANCERS” (KOREA INSTITUTE OF SCIENCE AND TECHNOLOGY, priority 2008, published 2013).
# “Also recorded” adds a separate entry of the source.
# Experiments:
# GBM cells = assay: Ca^2+ imaging of Fura2-AM loaded GBM cells; assay type: cell-based, human
# Text: Error bars represent SEM.
# It is hypothesized that these molecules existing in the Ca^2+ release pathway serve as a potential molecular target in controlling migration and invasion of GBM.
# HEK293T cell line = assay: Block against TFLLR-induced intracellular Ca^2+ release in HEK293T; assay type: cell-based; settings: 10 mM caffeine, 30 μM TFLLR
# U87MG cells = assay: Xenograft tumor growth assay; assay type: in vivo, athymic mice (Balb/c nu/nu); settings: caffeine 1 mg/ml in drinking water from day 7, subcutaneous U87MG, 4 weeks
# Description: Five-week-old athymic mice (Balb/c nu/nu) were obtained from Central Lab. Animal Inc. (Japan). For the xenograft tumor growth assay, U87MG cells (3×10^5 cells/150 ul PBS) were injected subcutaneously into the right flanks of the mice (n=5 to 10 mice per group), and the experiment was conducted in triplicate. […] The control animals were given distilled water. Tumor mass was estimated twice per week for 4 weeks, and tumor volumes were calculated by the formula: […]
# [1] = test system: human cell line (SH-SY5Y, ATCC); assay: Block against bradykinin-induced intracellular Ca^2+ release in human glioblastoma cell line; assay type: cell-based; settings: 10 mM caffeine, 10 μM bradykinin
# glioma = assay: Soft agar assay (colony formation); assay type: cell-based, human; settings: 0.5, 1, 2, 5, or 10 mM caffeine, 14 to 17 days
# Description: Cells (1×10^4) were seeded into 6-well plates in a soft agar (0.3%, Difco) overlaying a 0.6% base agar. […] Cells were incubated at 37 for 14 to 17 days to allow colonies to develop. Afterward colonies were stained with 0.05% cresyl violet and photographed. […] Each assay was done in triplicate (n=3)
# human U87MG = assay: Survival in orthotropic implantation model; settings: 1 mg/ml caffeine containing drinking water, intracranial U87MG
structure (smiles),measurement,setting,value
COc1ccc2c(c1)CC[C@@H]1[C@@H]2CC[C@]2(C)[C@@H](NCCCCCCN3C(=O)C=CC3=O)CC[C@@H]12 [U73122],release of Ca^2+ from intracellular stores in response to activation of GPCRs and RTKs,GBM cells,completely inhibited
Cn1c(=O)c2c(ncn2C)n(C)c1=O [caffeine],intracellular Ca^2+ release,HEK293T cell line,blocked
same,increase of tumor mass,U87MG cells,significantly inhibited
same,intracellular Ca^2+ release,[1],blocked
same,proliferation / anchorage-independent growth (colony numbers),glioma,"reduced the anchorage-independent growth of glioma in vitro, in a dose dependent manner; also recorded: significantly inhibited"
same,survival rate,human U87MG,significantly increase the survival rate
C/C=C(/C)C(=O)O[C@H]1C(C)=C2[C@H]([C@@H]1OC(=O)CCCCCCC)[C@@](C)(OC(C)=O)C[C@H](OC(=O)CCC)[C@@]1(O)[C@H]2OC(=O)[C@@]1(C)O [thapsigargin],subsequent increase in [Ca^2+]i by bradykinin after store depletion,GBM cells,completely inhibited
